According to ChEMBL document CHEMBL1158870, “Antitumor agents. 180. Chemical Studies and cytotoxic evaluation of cumingianosides and cumindysoside A, antileukemic triterpene glucosides with a 14,18-cycloapotirucallane skeleton” (1997):

Assays:
COLO 205 = assay: Cytotoxicity against human COLO205 cells by SRB assay; type: functional
HOP-62 = assay: Cytotoxicity against human HOP62 cells by SRB assay; type: functional
SR = assay: Cytotoxicity against human SR cells by SRB assay; type: functional
OVCAR-4 = assay: Cytotoxicity against human OVCAR4 cells by SRB assay; type: functional
MCF7 = assay: Cytotoxicity against human MCF7 cells by SRB assay; type: functional
NCI-H226 = assay: Cytotoxicity against human NCI-H226 cells by SRB assay; type: functional
[1] = Cytotoxicity against human prostate cancer cells by SRB assay; type: functional; settings: Cancer cell lines
MDA-MB-231 = assay: Cytotoxicity against human MDA-MB-231 cells by SRB assay; type: functional
SF-268 = assay: Cytotoxicity against human SF268 cells by SRB assay; type: functional
SK-MEL-28 = assay: Cytotoxicity against human SK-MEL-28 cells by SRB assay; type: functional
SNB-75 = assay: Cytotoxicity against human SNB75 cells by SRB assay; type: functional
ACHN = assay: Cytotoxicity against human ACHN cells by SRB assay; type: functional
HT-29 = assay: Cytotoxicity against human HT29 cells by SRB assay; type: functional
LOX IMVI = assay: Cytotoxicity against human LOXIMVI cells by SRB assay; type: functional
PC-3 = assay: Cytotoxicity against human PC3 cells by SRB assay; type: functional
RXF 393 = assay: Cytotoxicity against human RXF393 cells by SRB assay; type: functional
MDA-MB-435 = assay: Cytotoxicity against human MDA-MB-435 cells by SRB assay; type: functional
[2] = Cytotoxicity against human breast cancer cells by SRB assay; type: functional; settings: Cancer cell lines
SK-OV-3 = assay: Cytotoxicity against human SKOV3 cells by SRB assay; type: functional
[3] = Cytotoxicity against human 786-O cells by SRB assay; type: functional; settings: 786-0
A498 = assay: Cytotoxicity against human A498 cells by SRB assay; type: functional
OVCAR-5 = assay: Cytotoxicity against human OVCAR5 cells by SRB assay; type: functional
NCI-H23 = assay: Cytotoxicity against human NCI-H23 cells by SRB assay; type: functional
NCI-H322M = assay: Cytotoxicity against human NCI-H322M cells by SRB assay; type: functional
RPMI-8226 = assay: Cytotoxicity against human RPMI8226 cells by SRB assay; type: functional
M14 = assay: Cytotoxicity against human M14 cells by SRB assay; type: functional
[4] = Cytotoxicity against human ovarian cancer cells by SRB assay; type: functional; settings: Cancer cell lines
NCI-H522 = assay: Cytotoxicity against human NCI-H522 cells by SRB assay; type: functional
UACC-62 = assay: Cytotoxicity against human UACC62 cells by SRB assay; type: functional
CAKI-1 = assay: Cytotoxicity against human Caki1 cells by SRB assay; type: functional
SK-MEL-2 = assay: Cytotoxicity against human SK-MEL-2 cells by SRB assay; type: functional
A549 = assay: Cytotoxicity against human A549 cells by SRB assay; type: functional
OVCAR-8 = assay: Cytotoxicity against human OVCAR8 cells by SRB assay; type: functional
SW-620 = assay: Cytotoxicity against human SW620 cells by SRB assay; type: functional
CCRF-CEM = assay: Cytotoxicity against human CCRF-CEM cells by SRB assay; type: functional
MOLT-4 = assay: Cytotoxicity against human MOLT4 cells by SRB assay; type: functional
OVCAR-3 = assay: Cytotoxicity against human OVCAR-3 cells by SRB assay; type: functional
EKVX = assay: Cytotoxicity against human EKVX cells by SRB assay; type: functional
SN12C = assay: Cytotoxicity against human SN12C cells by SRB assay; type: functional
KM12 = assay: Cytotoxicity against human KM12 cells by SRB assay; type: functional
HCT-116 = assay: Cytotoxicity against human HCT116 cells by SRB assay; type: functional
[5] = Cytotoxicity against human melanoma cells by SRB assay; type: functional; settings: Melanoma cell
HCC 2998 = assay: Cytotoxicity against human HCC2998 cells by SRB assay; type: functional
U-251 = assay: Cytotoxicity against human U251 cells by SRB assay; type: functional
[6] = Cytotoxicity against human Hs 578T cells by SRB assay; type: functional
SNB-19 = assay: Cytotoxicity against human SNB19 cells by SRB assay; type: functional
[7] = Cytotoxicity against human CNS cancer cells by SRB assay; type: functional; settings: Cancer cell lines
UACC-257 = assay: Cytotoxicity against human UACC257 cells by SRB assay; type: functional
HCT-15 = assay: Cytotoxicity against human HCT15 cells by SRB assay; type: functional
[8] = Cytotoxicity against human MCF7/ADR cells by SRB assay; type: functional; settings: NCI/ADR-RES
NCI-H460 = assay: Cytotoxicity against human NCI-H460 cells by SRB assay; type: functional
[9] = Cytotoxicity against human renal cancer cells by SRB assay; type: functional; settings: Cancer cell lines
T47D = assay: Cytotoxicity against human T47D cells by SRB assay; type: functional
NSCLC = assay: Cytotoxicity against human NSCLC cells by SRB assay; type: functional
Malme-3M = assay: Cytotoxicity against human MALME-3M cells by SRB assay; type: functional
SK-MEL-5 = assay: Cytotoxicity against human SK-MEL-5 cells by SRB assay; type: functional
HOP-92 = assay: Cytotoxicity against human HOP92 cells by SRB assay; type: functional
UO-31 = assay: Cytotoxicity against human UO31 cells by SRB assay; type: functional
BT-549 = assay: Cytotoxicity against human BT549 cells by SRB assay; type: functional
IGROV-1 = assay: Cytotoxicity against human IGROV1 cells by SRB assay; type: functional
SF-295 = assay: Cytotoxicity against human SF295 cells by SRB assay; type: functional
[10] = Cytotoxicity against human HL60(TB) cells by SRB assay; type: functional, HL-60(TB); settings: HL-60
K562 = assay: Cytotoxicity against human K562 cells by SRB assay; type: functional
MDA-N = assay: Cytotoxicity against human MDA-N cells by SRB assay; type: functional
DU-145 = assay: Cytotoxicity against human DU145 cells by SRB assay; type: functional
Leukemia cell = assay: Cytotoxicity against human Leukemia cells by SRB assay; type: functional
[11] = Cytotoxicity against human Colon cancer cells by SRB assay; type: functional; settings: Cancer cell lines

`CC(=O)OC[C@H]1O[C@@H](O[C@@H]2C[C@H]3C(C)(C)[C@H](OC(C)=O)CC[C@]3(C)[C@H]3CCC4=C([C@@H](C)C[C@@H](O)[C@H](O)C(C)(C)O)CC[C@@]4(C)[C@@]32C)[C@H](O)[C@@H](O)[C@@H]1O` showed a GI50 (COLO 205) of 15.8 µM, a TGI (COLO 205) of 30.2 µM and a GI50 (HOP-62) of 16.2 µM. It also gave a GI50 (SR) of 12.3 µM, a GI50 (OVCAR-4) of 17 µM and a GI50 (MCF7) of 2880 nM. For the same molecule, the GI50 (NCI-H226) was 17.4 µM, the TGI [1] was 29.9 µM and the GI50 (MDA-MB-231) was 11.5 µM. It also gave a GI50 (SF-268) of 16.6 µM, a GI50 (SK-MEL-28) of 17 µM and a GI50 (SNB-75) of 13.2 µM. It also gave a GI50 (ACHN) of 17.8 µM, a GI50 (HT-29) of 16.6 µM and a TGI (HT-29) of 30.1 µM. It also gave a GI50 (LOX IMVI) of 12.6 µM, a GI50 (PC-3) of 14.5 µM and a GI50 (RXF 393) of 14.8 µM. For the same molecule, the GI50 (MDA-MB-435) was 15.8 µM, the TGI [2] was 28.9 µM and the GI50 (SK-OV-3) was 17.8 µM. For the same molecule, the GI50 [3] was 18.2 µM, the GI50 (A498) was 17.4 µM and the GI50 (OVCAR-5) was 17.8 µM. For the same molecule, the GI50 (NCI-H23) was 16.6 µM, the GI50 (NCI-H322M) was 17.4 µM and the GI50 (RPMI-8226) was 10.5 µM. For the same molecule, the GI50 (M14) was 17.4 µM, the TGI [4] was 30.4 µM and the GI50 (NCI-H522) was 13.2 µM. For the same molecule, the GI50 (UACC-62) was 12.6 µM, the GI50 (CAKI-1) was 15.5 µM and the GI50 (SK-MEL-2) was 16.2 µM. It also gave a GI50 (A549) of 19.1 µM, a GI50 (OVCAR-8) of 15.8 µM and a GI50 (SW-620) of 17 µM. The TGI (SW-620) was 30.7 µM, the GI50 (CCRF-CEM) was 15.8 µM and the GI50 (MOLT-4) was 13.2 µM. The GI50 (OVCAR-3) was 14.5 µM, the GI50 (EKVX) was 17 µM and the GI50 (SN12C) was 16.2 µM. For the same molecule, the GI50 (KM12) was 22.4 µM, the TGI (KM12) was 37.1 µM and the GI50 (HCT-116) was 14.1 µM. The TGI (HCT-116) was 27.2 µM, the TGI [5] was 29.1 µM and the GI50 (HCC 2998) was 12 µM. The TGI (HCC 2998) was 25.2 µM, the GI50 (U-251) was 6.03 µM and the GI50 [6] was 15.1 µM. It also gave a GI50 (SNB-19) of 14.5 µM, a TGI [7] of 28.2 µM and a GI50 (UACC-257) of 16.2 µM. It also gave a GI50 (HCT-15) of 17 µM, a TGI (HCT-15) of 30.8 µM and a GI50 [8] of 20.4 µM. The GI50 (NCI-H460) was 15.8 µM, the TGI [9] was 30.8 µM and the GI50 (T47D) was 16.6 µM. The TGI (NSCLC) was 30.3 µM, the GI50 (Malme-3M) was 16.6 µM and the GI50 (SK-MEL-5) was 16.2 µM. For the same molecule, the GI50 (HOP-92) was 14.5 µM, the GI50 (UO-31) was 18.2 µM and the GI50 (BT-549) was 15.5 µM. The GI50 (IGROV-1) was 16.2 µM, the GI50 (SF-295) was 17.4 µM and the GI50 [10] was 12.9 µM. The GI50 (K562) was 12.6 µM, the GI50 (MDA-N) was 17 µM and the GI50 (DU-145) was 17.8 µM. The TGI (Leukemia cell) was 32.2 µM and the TGI [11] was 30.2 µM.
